Measurements as given in paper PMC12065899 (Communications Biology, 2025).
Substitutions are numbered along the chain they refer to.

How the values were obtained:
Type in all cases: biochemical
[1] = target: T1, HvExoI (β-D-glucan glucohydrolase) (Hordeum vulgare, UniProt Q9XEI3, E245A); test: competitive inhibition kinetics with 4NP-Glc
T1 sequence (Q9XEI3 26-630 E245A): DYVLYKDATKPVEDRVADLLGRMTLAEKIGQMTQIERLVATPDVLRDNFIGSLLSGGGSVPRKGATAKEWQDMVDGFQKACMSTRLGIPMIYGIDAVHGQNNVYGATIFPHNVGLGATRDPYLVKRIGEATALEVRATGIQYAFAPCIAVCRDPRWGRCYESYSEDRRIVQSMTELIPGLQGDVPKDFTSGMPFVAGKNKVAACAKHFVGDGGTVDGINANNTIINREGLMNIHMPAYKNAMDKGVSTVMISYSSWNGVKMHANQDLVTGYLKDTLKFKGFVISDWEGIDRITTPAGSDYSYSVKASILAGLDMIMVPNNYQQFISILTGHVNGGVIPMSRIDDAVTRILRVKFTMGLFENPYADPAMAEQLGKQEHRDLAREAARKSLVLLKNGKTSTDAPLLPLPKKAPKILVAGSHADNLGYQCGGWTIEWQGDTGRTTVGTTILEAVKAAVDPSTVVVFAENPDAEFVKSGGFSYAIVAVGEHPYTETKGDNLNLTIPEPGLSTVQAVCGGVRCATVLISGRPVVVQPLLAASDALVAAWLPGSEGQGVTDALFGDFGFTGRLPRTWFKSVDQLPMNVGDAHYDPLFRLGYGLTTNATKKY

[2] = target: T2, HvExoI (β-D-glucan glucohydrolase) (Hordeum vulgare, UniProt Q9XEI3); test: competitive inhibition kinetics with 4NP-Glc
T2 sequence (Q9XEI3 26-630): T1 sequence (Q9XEI3 26-630 E245A) with A220E

[3] = target: T1, HvExoI (β-D-glucan glucohydrolase); test: X-ray crystal structure

SMILES | Ki [1] | Ki [2] | Ki [3]
O=C1O[C@H](CO)[C@@H](O)[C@H](O)[C@H]1O [glucono-δ-lactone] | 103000 nM | – | –
O=[N+]([O-])c1ccc(O[C@H]2O[C@H](CO)[C@@H](O)[C@H](O)[C@H]2F)c([N+](=O)[O-])c1 [2F-DNPGlc, 2,4-dinitrophenyl 2-deoxy-2-fluro-α-D-glucopyranoside] | – | 500 nM | 500 nM
